Patent publication US9476099B2 (TRUSTEES OF DARTMOUTH COLLEGE, priority 2012, dated 2016)

What was measured:
NT2 cells = assay: Gene set enrichment analysis (GSEA) of microarray data (Table 6); type: cell-based, human
Method: Gene set enrichment analysis (GSEA) was performed.
Expression analysis was performed on the […] HumanHT-12 v3 or […] HumanHT-12 v4 bead chip arrays ([…]) and scanned on the BeadArray Reader ([…]) according to manufacturer's instructions.

833K-CP cells = assay: Cisplatin sensitivity (cell viability) after low dose decitabine pretreatment; type: cell-based; conditions: 2.5 nM 3 days, 24 hour recovery, cisplatin 6 hours, viability 3 days later
Method: (§1) Cell viability was assayed 3 days later. For NT2D1-R1 cells, 10 nM decitabineR was employed. […] Data are the average of biological triplicates and representative of at least two experiments. Error bars are standard error of the mean (SEM).
(§2) Cell viability was assayed 3 days later. For NT2D1-R1 cells, 10 nM decitabineR was employed. […] Data are the average of biological triplicates and representative of at least two experiments. Error bars are SEM.
(§3) Five distinct lentiviral shRNAs for DNMT3B (sh84, sh85, sh86, sh87, and sh88) were used to knock down DNMT3B expression. Six potential alternatively spliced isoforms of DNMT3B exist; the most biologically relevant isoforms are variants 1, 2, 3 and 6 (Jones, P. A. and S. B. Baylin. 2007. Cell 128:683-692). […] Western blot analysis of NT2/D1 and NT2/D1-R1 cells was also performed with cells treated with DNMT3B shRNA ([…]) and employing DNMT3B antibody, H-230. The results confirmed the reduced expression of DNMT3B when the shRNA were employed. None of the DNMT3B-specific shRNAs affected levels of DNMT1 or DNMT3A (FIG. 2). […] However, knockdown of DNMT3B by itself had no apparent effect on the growth of NT2/D1 or NT2/D1-R1 cells. […] It had been previously reported that cisplatin causes a global p53-dominant transcriptional response in EC cells (Kerley-Hamilton et al. 2005. Oncogene 24:6090-6100). […]

NT2/D1-R1 cells = assay: as above; type: cell-based; conditions: 10 nM 3 days, 24 hour recovery, cisplatin 6 hours, viability 3 days later
Method: as §1, §2, §3

[1] = tested on: LINE-1 elements in NT2/D1 cells; assay: LINE-1 element bisulfite pyrosequencing (global DNA methylation); type: cell-based; conditions: low dose decitabine
Text: (§4) Genomic DNA was isolated with the QIAMP DNA mini kit (Qiagen) and bisulfite converted with the EZ DNA methylation kit (Zymo Research). DNA was amplified with HOTSTARTAQ plus DNA polymerase (Qiagen). The LINE-1 pyrosequencing assay averages across four CpG sites and has been described previously (Kashiwagi et al. 2011. Nucleic Acids Res. 39:874-888). Pyrosequencing assays for RIN1, SOX15, and TLR4 were designed with PyroMark assay design software (Qiagen) to sequence across corresponding probes cg0599842, cg02515422 and cg13098960 on the HumanMethylation27 BeadChip.

U87 glioblastomoa cells = assay: Decitabine treatment of glioblastoma cells; type: cell-based; conditions: doses as high as 1 μM
[2] = tested on: non-seminiferous testicular cancer (germ cell testicular cancer); conditions: 75 mg/m^2, 3 infusions in one day, repeated once a week for 5 weeks; Clavel et al. 1992; cited from earlier work
[3] = tested on: RIN1, SOX15 and TLR4 promoter in NT2/D1 cells; assay: Promoter specific bisulfite pyrosequencing; type: cell-based; conditions: 10 nM, 3 days, FIG. 13
Text: The graph depicts an average of triplicate sample determinations. Error bars are standard deviation. **=p<0.005. SOX15 values represent the average methylation value across two CpG sites. RIN1 and TRL4 values represent the average methylation across three CpG sites.
However, methylation changes were less robust in the experiments in NT2/D1 cells. Only 12 genes were identified as having significant decreases in promoter methylation. […] These six genes included RIN1, SOX15, TLR4, GPER, TRIM54, and CD164L2.
as §4

NT2/D1 cells = assay: Apoptosis by PARP cleavage and sub G1 DNA content; type: cell-based; conditions: decitabine 10 nM, three days; NT2/D1
Method: Cells were cultured in DMEM media (Gibco) with 10% FBS. Decitabine was added fresh each day. Lentiviral control cells and the stable shRNA DNMT3B knockdown cell line (NT2/D1-R1-sh84) were described previously (Beyrouthy et al. 2009. Cancer Res. 69:9360-9366). DNMT3B knockdown was greater than 90% as confirmed by western blot analysis. Cell proliferation and survival were assessed with the CELL-TITRE GLO assay (Promega). Cell cycle analysis with propidium iodine has been previously described (Kerley-Hamilton et al. 2005. Oncogene 24:6090-6100).
SYBR green-based real-time PCR (Applied Biosystems) was employed using the ddCT method normalized to GAPDH. For western blot analysis cells were lysed in radioimmune precipitation buffer and separated by SDS-PAGE. Antibodies to actin (sc01615, Santa Cruz), 139-H2AX (Cell Signaling), PARP (c-2-10, Biomol International) and p53 (D0-1, Santa Cruz) were used.

[4] = Gene Sets Depleted in NT2 Cells with 3-Day Decitabine Treatment (10 nM)
[5] = Gene Sets Enriched in NT2 Cells with 3-Day Decitabine Treatment (10 nM)

## Nc1ncn([C@H]2C[C@H](O)[C@@H](CO)O2)c(=O)n1 [decitabine, 5-aza-deoxycytidine]
NT2 cells; [4]
  NES, BENPORATH_ES_1: 2.6981
  NES, BENPORATH_ES_2: 2.3953
  NES, BHATTACHARYA_EMBRYONIC_STEM_CELL: 2.2132
  NES, CONRAD_STEM_CELL: 2.1627
  NES, MISSIAGLIA_REGULATED_BY_METHYLATION_DN: 2.1720
  NES, MUELLER_PLURINET: 2.2694
  NES, PAL_PRMT5_TARGETS_UP: 2.2049
  NES, SCHLOSSER_MYC_TARGETS_AND_SERUM_RESPONSE_DN: 2.2821
  NES, SCHLOSSER_MYC_TARGETS_REPRESSED_BY_SERUM: 2.4043
  NES, SCHUHMACHER_MYC_TARGETS_UP: 2.5662
  NES, VSE2F_02: 2.2708
  NES, WONG_EMBRYONIC_STEM_CELL_CORE: 2.4279
NT2 cells; [5]
  NES, CONCANNON_APOPTOSIS_BY_EPOXOMICIN_UP: −2.2139
  NES, HAMAI_APOPTOSIS_VIA_TRAIL_DN: −1.9615
  NES, HELLER_SILENCED_BY_METHYLATION_UP: −1.9604
  NES, KERLEY_RESPONSE_TO_CISPLATIN_UP: −2.4408
  NES, KIM_RESPONSE_TO_TSA_AND_DECITABINE_UP: −1.9665
  NES, KYNG_DNA_DAMAGE_BY_UV: −2.0319
  NES, MISSIAGLIA_REGULATED_BY_METHYLATION_UP: −2.1687
  NES, MUELLER_METHYLATED_IN_GLIOBLASTOMA: −2.0961
  NES, RUGO_UV_RESPONSE: −1.9676
833K-CP cells
  effect of low dose decitabine pretreatment on cisplatin-induced growth suppression and toxicity: restored cisplatin-induced growth suppression and toxicity
NT2/D1-R1 cells
  effect of low dose decitabine pretreatment on cisplatin-induced growth suppression and toxicity: restored cisplatin-induced growth suppression and toxicity
[1]
  global DNA methylation (LINE-1 bisulfite pyrosequencing): significant reduction in global DNA methylation
U87 glioblastomoa cells
  effect of decitabine treatment on U87 cells: unaffected
[2]
  activity in Phase II clinical trial patients: no activity
[3]
  promoter methylation of RIN1, SOX15 and TLR4 (bisulfite pyrosequencing): decreased promoter methylation
NT2/D1 cells
  apoptotic responses (PARP cleavage, sub G1 DNA content with G2 arrest): apoptotic responses
